# Measured values reported in patent publication US5075338A (priority 1986, dated 1991).
# Columns and labels:
# [1] = system: noradrenaline uptake, nucleus free supernatant of rat cortex; experiment: 3H-noradrenaline uptake in the nucleus free supernatant of rat cortex; type: biochemical; details: 37° C., 5 minutes
# Procedure: II/7. Determination of ^3 H-noradrenaine uptake in the nucleus free supernatant of rat cortex (in vivo)
# The cortex is homogenized in 0.32M saccharose with a teflon potter, the cell nucleus is sedimented by centrifuging at 0° C. with 1000 g for 20 minutes; the supernatant thus obtained is used for the test. The intake is accomplished in a KrebsHeinseleit solution saturated with carbogen, in a final volume of 1 ml, at a ^3 H-noradrenaline concentration of […]. Pre-incubation and incubation are carried out at 37° C. for 5 minutes each. The reaction is stopped by adding 4 ml of ice-cold Krebs solution and the tissue is separated by GF/B filtration. Non-specific uptake is determined by using 10^-4 M nisoxetine at 37° C. The radioactivity of the GF/B filter-paper is determined by liquid scintillation measurement in a toluene-PPO-POPOPtritone mixture.
# [2] = system: rabbit pulmonary artery, tyramine-induced noradrenaline release; details: for IC50: read-out: IC50, inhibition of noradrenaline releasing effect of tyramine
# [3] = effect exerted on motility, on rats (spontaneous passings in shuttle-box); type: in vivo, rat
# Procedure: II/4. Determination of effect exerted on motility, on rats
# The test is carried out in a Shuttle-box without introducing current and light. The number of spontaneous passings over from side of the box to the other is registered and summarized by the apparatus for an observation period of 30 minutes. The test is carried out on groups comprising […] CFY rats of both sexes weighing […]. The test compound of the Formula I is added prior to the test subcutaneously, together with tetrabenazine and desmethyl-imiprmine (DMI) reference compounds, respectively.
# [4] = effect exerted on food intake, in rats; type: in vivo, rat
# [5] = psychostimulant effect in rats: shuttle-box test; type: in vivo, rat
# in vivo = details: rat
# isolated rat striatum [6] = experiment: dopaminergic activity increasing effect on isolated rat striatum preparations, ex vivo
# Procedure: (§1) Determination of the dopamineric activity increasing effect, on isolated rat striatum preparations
# (§2) Method: Kerecsen et al: Chromatography, the State of the Art, (Eds. Kalasz, Ettre) Akademiai Kiaoo Budepest (1985) page 195-203.
# In ex vivo tests the animals are treated s.c. for 3 weeks and the organ is removed 2 hours after administering the last injection.
# isolated rat striatum [7] = experiment: dopaminergic activity increasing effect on isolated rat striatum preparations, in vitro
# Excerpt: as §1, §2
# [8] = system: tetrabenazine-induced depression; experiment: antagonism of tetrabenazine-induced depression in learning test: jumping test; type: in vivo, rat
# Excerpt: (§3) II/3 Determination of antagonism of tetrabenazine-induced depression, in learning test, on rats
# a) Jumping test. Method: J. Knoll, B. Knoll: Arzneimittel Forschung 8, 339 (1958), 9, 633 (1959).
# [9] = system: tetrabenazine-induced depression; experiment: antagonism of tetrabenazine-induced depression in learning test: shuttle-box test; type: in vivo, rat; details: N = 12
# Excerpt: as §3
# Method: B. Knoll, J. Knoll: Pol. J. Pharmacol. Pharm. 34, 17-23 (1982).
# According to this test depression caused by tetrabenazine can be antagonized by the compounds of the Formula I. In Table 3 the numerical values of the series of test carried out by using the compound according to Example 7 are disclosed.
# [10] = 10 mg/kg s.c., 30 minutes observation
# [11] = 1st day, tetrabenazine 0.5 mg/kg + 10 mg/kg compound, s.c. daily
# [12] = 2nd day, tetrabenazine 0.5 mg/kg + 10 mg/kg compound, s.c. daily
# [13] = 3rd day, tetrabenazine 0.5 mg/kg + 10 mg/kg compound, s.c. daily
# [14] = 4th day, tetrabenazine 0.5 mg/kg + 10 mg/kg compound, s.c. daily
# [15] = 5th day, tetrabenazine 0.5 mg/kg + 10 mg/kg compound, s.c. daily
# [16] = 1st day, tetrabenazine 0.5 mg/kg s.c. daily
# [17] = 2nd day, tetrabenazine 0.5 mg/kg s.c. daily
# [18] = 3rd day, tetrabenazine 0.5 mg/kg s.c. daily
# [19] = 4th day, tetrabenazine 0.5 mg/kg s.c. daily
# [20] = 5th day, tetrabenazine 0.5 mg/kg s.c. daily
compound,measurement,setting,value
"CCCNC(CCC)Cc1ccccc1 (centres unmarked) [Example 4, N-propyl-1-phenyl-2-pentylamine]",IC50,[1],50 nM
same,IC50,[2],1220 nM
same,antagonism of motility inhibiting effect of 1 mg/kg of tetrabenazine,[3]; 1 mg/kg s.c.,completely antagonized
same,motility,[3]; [10],do increase motility
same,food intake,"[4]; 5 mg/kg, first hour",decreasing effect being approximately identical with that of about 0.5 mg/kg of amphetamine
same,general motility,[5]; 0.5 mg/kg daily,without signs of increased general motility
same,performance over the control,[5]; 0.5 mg/kg daily,significant increase of performance over the control
same,increase of the intersignal reactions,[5]; 15 mg/kg daily,moderate
same,learning and retention,"[5]; 15 mg/kg daily, complete test-period",increased learning and retentions from the very first day
same,maintenance of acquired performance after termination of treatment,"[5]; 15 mg/kg, one-week learning period, 6 weeks after termination",completely maintain the performance acquired
same,LD50,in vivo; iv,27 mg/kg
same,LD50,in vivo; po,270 mg/kg
same,LD50,in vivo; sc,50 mg/kg
"CCCNC(Cc1ccccc1)Cc1ccccc1.Cl [Example 5, N-propyl-1,3-diphenyl-2-propylamine-hydrochloride]",motility,[3]; [10],do increase motility
same,LD50,in vivo; sc,> 150 mg/kg
same,mortality,in vivo; sc,0%
"CCCNC(Cc1ccccc1)c1ccccc1.Cl (centres unmarked) [Example 3, N-propyl-1,2-diphenyl-ethylamine-hydrochloride]",IC50,[2],7470 nM
same,motility,[3]; [10],do not increase motility
same,LD50,in vivo; sc,75 mg/kg
same,mortality,in vivo; sc,0%
"C#CCN(C)[C@H](C)Cc1ccccc1 [Example 1-deprenyl, reference compound]",IC50,[1],7000 nM
"CCCC(Cc1ccccc1)NC(C)C.Cl (centres unmarked) [Example 1, N-iso-propyl-1-phenyl-2-pentylamine-hydrochloride]",IC50,[2],7470 nM
same,LD50,in vivo; sc,135 mg/kg
CCCCC(Cc1ccccc1)NCCC (centres unmarked) [Example 11],IC50,[1],100 nM
same,"IC50, inhibition of noradrenaline releasing effect of tyramine",[2],can not be given
same,motility,[3]; [10],do increase motility
same,food intake,"[4]; 5 mg/kg, first hour",decreasing effect being approximately identical with that of about 0.5 mg/kg of amphetamine
same,LD50,in vivo; sc,110 mg/kg
CCCCC(Cc1ccccc1)NC(C)Cc1ccccc1 (centres unmarked) [Example 12],IC50,[2],3460 nM
same,LD50,in vivo; iv,16 mg/kg
same,LD50,in vivo; sc,> 25 mg/kg
CCCC(Cc1ccccc1)NC (centres unmarked) [Example 10],IC50,[2],1800 nM
same,LD50,in vivo; iv,18 mg/kg
same,LD50,in vivo; sc,175 mg/kg
CCCCCCC(Cc1ccccc1)NCCC (centres unmarked) [Example 13],IC50,[2],501 nM
same,LD50,in vivo; sc,> 50 mg/kg
same,mortality,in vivo; sc,0%
"CCCNC(CC)Cc1ccccc1 (centres unmarked) [Example 6, N-propyl-1-phenyl-2-butyl-amine]",DOPAC concentration of the bath of the organ,"isolated rat striatum [6]; daily dose 0.25, s.c. 3 weeks",222 pmol/g/min
same,dopamine (DA) concentration of the bath of the organ,"isolated rat striatum [6]; daily dose 0.25, s.c. 3 weeks",257 pmol/g/min
same,DOPAC concentration of the bath of the organ,"isolated rat striatum [6]; daily dose 5.0, s.c. 3 weeks",223 pmol/g/min
same,dopamine (DA) concentration of the bath of the organ,"isolated rat striatum [6]; daily dose 5.0, s.c. 3 weeks",189 pmol/g/min
same,IC50,[1],500 nM
same,DOPAC concentration of the bath of the organ,isolated rat striatum [7]; dose 0.3,172 pmol/g/min
same,dopamine (DA) concentration of the bath of the organ,isolated rat striatum [7]; dose 0.3,214 pmol/g/min
same,DOPAC concentration of the bath of the organ,isolated rat striatum [7]; dose 1.0,190 pmol/g/min
same,dopamine (DA) concentration of the bath of the organ,isolated rat striatum [7]; dose 1.0,366 pmol/g/min
same,DOPAC concentration of the bath of the organ,isolated rat striatum [7]; dose 3.0,331 pmol/g/min
same,dopamine (DA) concentration of the bath of the organ,isolated rat striatum [7]; dose 3.0,290 pmol/g/min
same,DOPAC concentration of the bath of the organ,isolated rat striatum [7]; dose 10.0,537 pmol/g/min
same,dopamine (DA) concentration of the bath of the organ,isolated rat striatum [7]; dose 10.0,477 pmol/g/min
same,IC50,[2],346 nM
same,antagonism of motility inhibiting effect of 1 mg/kg of tetrabenazine,[3]; 2.5 mg/kg s.c.,significantly antagonized
same,motility,[3]; [10],do not increase motility
same,food intake,"[4]; rats fasted for 96 hours, similar dose (15 mg/kg)",does not influence the food intake
same,food intake,"[4]; well-fed satiated rats, 15 mg/kg p.o. or s.c.",does not change food intake
same,LD50,in vivo; iv,40 mg/kg
same,LD50,in vivo; po,300 mg/kg
same,LD50,in vivo; sc,140 mg/kg
same,antagonism of the depressive effect of tetrabenazine,[8]; 15 mg/kg,entirely antagonized
same,inhibition of the solid conditioned reflex,[8]; 15 mg/kg (high doses),can not be inhibited
"COCCNC(C)Cc1ccccc1 (centres unmarked) [Example 7, N-(2-methoxyethyl)-1-phenyl-2-propyl-amine]",IC50,[2],14100 nM
same,LD50,in vivo; sc,> 200 mg/kg
same,mortality,in vivo; sc,0%
same,F+ = % of animals showing a conditioned reaction,[9]; [11],34.60%
same,IR = number of intersignal reactions,[9]; [11],10.50
same,f+ = % of animals responding to unconditioned stimulus,[9]; [11],49.80%
same,f- = % of animals which do not respond even to unconditioned stimulus,[9]; [11],16.40%
same,F+ = % of animals showing a conditioned reaction,[9]; [12],62.20%
same,IR = number of intersignal reactions,[9]; [12],14.70
same,f+ = % of animals responding to unconditioned stimulus,[9]; [12],21.00%
same,f- = % of animals which do not respond even to unconditioned stimulus,[9]; [12],16.80%
same,F+ = % of animals showing a conditioned reaction,[9]; [13],69.20%
same,IR = number of intersignal reactions,[9]; [13],21.30
same,f+ = % of animals responding to unconditioned stimulus,[9]; [13],9.80%
same,f- = % of animals which do not respond even to unconditioned stimulus,[9]; [13],21.00%
same,F+ = % of animals showing a conditioned reaction,[9]; [14],64.90%
same,IR = number of intersignal reactions,[9]; [14],14.30
same,f+ = % of animals responding to unconditioned stimulus,[9]; [14],17.70%
same,f- = % of animals which do not respond even to unconditioned stimulus,[9]; [14],17.40%
same,F+ = % of animals showing a conditioned reaction,[9]; [15],76.10%
same,IR = number of intersignal reactions,[9]; [15],16.80
same,f+ = % of animals responding to unconditioned stimulus,[9]; [15],8.50%
same,f- = % of animals which do not respond even to unconditioned stimulus,[9]; [15],15.40%
"COc1cc2c(cc1OC)C1CC(=O)C(CC(C)C)CN1CC2 (centres unmarked) [tetrabenazine, reference compound]",motility,[3]; 1 mg/kg tetrabenazine,motility inhibiting effect
same,inhibition of the solid conditioned reflex,[8]; 5 mg/kg tetrabenazine,completely inhibited
same,F+ = % of animals showing a conditioned reaction,[9]; [16],9.58%
same,IR = number of intersignal reactions,[9]; [16],10.25
same,f+ = % of animals responding to unconditioned stimulus,[9]; [16],31.25%
same,f- = % of animals which do not respond even to unconditioned stimulus,[9]; [16],59.17%
same,F+ = % of animals showing a conditioned reaction,[9]; [17],8.50%
same,IR = number of intersignal reactions,[9]; [17],8.33
same,f+ = % of animals responding to unconditioned stimulus,[9]; [17],30.75%
same,f- = % of animals which do not respond even to unconditioned stimulus,[9]; [17],60.75%
same,F+ = % of animals showing a conditioned reaction,[9]; [18],11.42%
same,IR = number of intersignal reactions,[9]; [18],4.67
same,f+ = % of animals responding to unconditioned stimulus,[9]; [18],15.83%
same,f- = % of animals which do not respond even to unconditioned stimulus,[9]; [18],72.75%
same,F+ = % of animals showing a conditioned reaction,[9]; [19],9.8%
same,IR = number of intersignal reactions,[9]; [19],4.50
same,f+ = % of animals responding to unconditioned stimulus,[9]; [19],17.83%
same,f- = % of animals which do not respond even to unconditioned stimulus,[9]; [19],73.08%
same,F+ = % of animals showing a conditioned reaction,[9]; [20],17.67%
same,IR = number of intersignal reactions,[9]; [20],6.92
same,f+ = % of animals responding to unconditioned stimulus,[9]; [20],12.58%
same,f- = % of animals which do not respond even to unconditioned stimulus,[9]; [20],69.75%
"CNCCCN1c2ccccc2CCc2ccccc21 [DMI, desmethyl-imiprmine, reference compound]",IC50,[1],1 to 5 nM
same,effect on motility and on tetrabenazine induced depression of motility,[3]; DMI reference,inhibitory by itself rather than antagonistic against tetrabenazine induced depression of motility
CCC(Cc1ccccc1)NC1CCCCC1 (centres unmarked) [Example 9],IC50,[2],799 nM
same,LD50,in vivo; sc,160 mg/kg
CCNC(CC)Cc1ccccc1 (centres unmarked) [Example 8],IC50,[2],1890 nM
same,LD50,in vivo; iv,46 mg/kg
same,LD50,in vivo; sc,195 mg/kg
"CCCC(Cc1ccccc1)NCCCO (centres unmarked) [Example 2, N-(3-hydroxypropyl)-1-phenyl-2-pentylamine]",IC50,[2],368 nM
same,LD50,in vivo; iv,50 mg/kg
same,LD50,in vivo; sc,> 200 mg/kg
same,mortality,in vivo; sc,0%
